Source: PubChem BioAssay (NCI)
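Tested at 5 concentrations; 48 h exposure; 96-well plates; endpoints linearly interpolated, else capped at highest concentration. Definition used: TGI = concentration required for complete inhibition of growth.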

What was measured:
Experiment in all cases: NCI anticancer screen, dose series, 48 h
786-0 renal = tested on: 786-0 renal
A498 renal = tested on: A498 renal
A549 NSCLC = tested on: A549 NSCLC
ACHN renal = tested on: ACHN renal
BT-549 breast = tested on: BT-549 breast
CAKI-1 renal = tested on: CAKI-1 renal
CCRF-CEM leukemia = tested on: CCRF-CEM leukemia
COLO 205 colon = tested on: COLO 205 colon
DU-145 prostate = tested on: DU-145 prostate
EKVX NSCLC = tested on: EKVX NSCLC
HCC-2998 colon = tested on: HCC-2998 colon
HCT-116 colon = tested on: HCT-116 colon
HCT-15 colon = tested on: HCT-15 colon
HL-60(TB) leukemia = tested on: HL-60(TB) leukemia
HOP-62 NSCLC = tested on: HOP-62 NSCLC
HS 578T breast = tested on: HS 578T breast
HT29 colon = tested on: HT29 colon
IGROV1 ovarian = tested on: IGROV1 ovarian
K-562 leukemia = tested on: K-562 leukemia
KM12 colon = tested on: KM12 colon
LOX IMVI melanoma = tested on: LOX IMVI melanoma
M14 melanoma = tested on: M14 melanoma
MALME-3M melanoma = tested on: MALME-3M melanoma
MCF7 breast = tested on: MCF7 breast
MDA-MB-231 breast = tested on: MDA-MB-231 breast
MDA-MB-435 = tested on: MDA-MB-435
MDA-N = tested on: MDA-N
MOLT-4 leukemia = tested on: MOLT-4 leukemia
NCI-H226 lung = tested on: NCI-H226 lung
NCI-H23 lung = tested on: NCI-H23 lung
NCI-H460 lung = tested on: NCI-H460 lung
NCI-H522 lung = tested on: NCI-H522 lung
OVCAR-3 ovarian = tested on: OVCAR-3 ovarian
OVCAR-4 ovarian = tested on: OVCAR-4 ovarian
OVCAR-5 ovarian = tested on: OVCAR-5 ovarian
OVCAR-8 ovarian = tested on: OVCAR-8 ovarian
PC-3 prostate = tested on: PC-3 prostate
RPMI-8226 leukemia = tested on: RPMI-8226 leukemia
SF-268 CNS = tested on: SF-268 CNS
SF-295 CNS = tested on: SF-295 CNS
SF-539 CNS = tested on: SF-539 CNS
SK-MEL-2 melanoma = tested on: SK-MEL-2 melanoma
SK-MEL-28 melanoma = tested on: SK-MEL-28 melanoma
SK-MEL-5 melanoma = tested on: SK-MEL-5 melanoma
SK-OV-3 ovarian = tested on: SK-OV-3 ovarian
SN12C renal = tested on: SN12C renal
SNB-19 CNS = tested on: SNB-19 CNS
SNB-75 CNS = tested on: SNB-75 CNS
SR leukemia = tested on: SR leukemia
SW-620 colon = tested on: SW-620 colon
T-47D breast = tested on: T-47D breast
TK-10 renal = tested on: TK-10 renal
U251 CNS = tested on: U251 CNS
UACC-257 melanoma = tested on: UACC-257 melanoma
UACC-62 melanoma = tested on: UACC-62 melanoma
HOP-92 NSCLC = tested on: HOP-92 NSCLC
NCI/ADR-RES ovarian = tested on: NCI/ADR-RES ovarian

## COC(=O)C1=C(C(=O)NNc2ccccc2)N(c2cccnc2Cl)C(c2ccccc2)=CC1c1ccccc1 (stereo unspecified)
786-0 renal
  TGI: > 100 µM
A498 renal
  TGI: > 100 µM
A549 NSCLC
  TGI: > 100 µM
ACHN renal
  TGI: > 100 µM
BT-549 breast
  TGI: > 100 µM
CAKI-1 renal
  TGI: > 100 µM
CCRF-CEM leukemia
  TGI: > 100 µM
COLO 205 colon
  TGI: > 100 µM
DU-145 prostate
  TGI: > 100 µM
EKVX NSCLC
  TGI: > 100 µM
HCC-2998 colon
  TGI: > 100 µM
HCT-116 colon
  TGI: > 100 µM
HCT-15 colon
  TGI: > 100 µM
HL-60(TB) leukemia
  TGI: > 100 µM
HOP-62 NSCLC
  TGI: > 100 µM
HS 578T breast
  TGI: > 100 µM
HT29 colon
  TGI: > 100 µM
IGROV1 ovarian
  TGI: > 100 µM
K-562 leukemia
  TGI: > 100 µM
KM12 colon
  TGI: > 100 µM
LOX IMVI melanoma
  TGI: > 100 µM
M14 melanoma
  TGI: > 100 µM
MALME-3M melanoma
  TGI: > 100 µM
MCF7 breast
  TGI: > 100 µM
MDA-MB-231 breast
  TGI: > 100 µM
MDA-MB-435
  TGI: > 100 µM
MDA-N
  TGI: 45.6 µM
MOLT-4 leukemia
  TGI: 67.2 µM
NCI-H226 lung
  TGI: > 100 µM
NCI-H23 lung
  TGI: > 100 µM
NCI-H460 lung
  TGI: > 100 µM
NCI-H522 lung
  TGI: > 100 µM
OVCAR-3 ovarian
  TGI: > 100 µM
OVCAR-4 ovarian
  TGI: > 100 µM
OVCAR-5 ovarian
  TGI: > 100 µM
OVCAR-8 ovarian
  TGI: > 100 µM
PC-3 prostate
  TGI: > 100 µM
RPMI-8226 leukemia
  TGI: 82.8 µM
SF-268 CNS
  TGI: > 100 µM
SF-295 CNS
  TGI: 56 µM
SF-539 CNS
  TGI: > 100 µM
SK-MEL-2 melanoma
  TGI: 76.6 µM
SK-MEL-28 melanoma
  TGI: > 100 µM
SK-MEL-5 melanoma
  TGI: > 100 µM
SK-OV-3 ovarian
  TGI: > 100 µM
SN12C renal
  TGI: > 100 µM
SNB-19 CNS
  TGI: > 100 µM
SNB-75 CNS
  TGI: > 100 µM
SR leukemia
  TGI: > 100 µM
SW-620 colon
  TGI: > 100 µM
T-47D breast
  TGI: > 100 µM
TK-10 renal
  TGI: > 100 µM
U251 CNS
  TGI: > 100 µM
UACC-257 melanoma
  TGI: > 100 µM
UACC-62 melanoma
  TGI: > 100 µM

## CCCC(=O)Nc1cc2c3c(c1)CCCN3CCC2
786-0 renal
  TGI: > 10 µM
A549 NSCLC
  TGI: > 10 µM
ACHN renal
  TGI: > 10 µM
BT-549 breast
  TGI: > 10 µM
CAKI-1 renal
  TGI: > 10 µM
CCRF-CEM leukemia
  TGI: > 10 µM
COLO 205 colon
  TGI: > 10 µM
DU-145 prostate
  TGI: > 10 µM
HCC-2998 colon
  TGI: > 10 µM
HCT-116 colon
  TGI: > 10 µM
HCT-15 colon
  TGI: > 10 µM
HL-60(TB) leukemia
  TGI: > 10 µM
HOP-62 NSCLC
  TGI: > 10 µM
HOP-92 NSCLC
  TGI: > 10 µM
HS 578T breast
  TGI: > 10 µM
HT29 colon
  TGI: > 10 µM
IGROV1 ovarian
  TGI: > 10 µM
K-562 leukemia
  TGI: > 10 µM
KM12 colon
  TGI: > 10 µM
LOX IMVI melanoma
  TGI: > 10 µM
M14 melanoma
  TGI: > 10 µM
MALME-3M melanoma
  TGI: > 10 µM
MCF7 breast
  TGI: > 10 µM
MDA-MB-231 breast
  TGI: > 10 µM
MDA-MB-435
  TGI: > 10 µM
MDA-N
  TGI: > 10 µM
NCI-H23 lung
  TGI: > 10 µM
NCI-H522 lung
  TGI: > 10 µM
NCI/ADR-RES ovarian
  TGI: > 10 µM
OVCAR-3 ovarian
  TGI: > 10 µM
OVCAR-4 ovarian
  TGI: > 10 µM
OVCAR-5 ovarian
  TGI: > 10 µM
OVCAR-8 ovarian
  TGI: > 10 µM
PC-3 prostate
  TGI: > 10 µM
RPMI-8226 leukemia
  TGI: > 10 µM
SF-268 CNS
  TGI: > 10 µM
SF-295 CNS
  TGI: > 10 µM
SF-539 CNS
  TGI: > 10 µM
SK-MEL-28 melanoma
  TGI: > 10 µM
SK-MEL-5 melanoma
  TGI: > 10 µM
SK-OV-3 ovarian
  TGI: > 10 µM
SN12C renal
  TGI: > 10 µM
SNB-19 CNS
  TGI: > 10 µM
SNB-75 CNS
  TGI: > 10 µM
SR leukemia
  TGI: > 10 µM
SW-620 colon
  TGI: > 10 µM
T-47D breast
  TGI: > 10 µM
TK-10 renal
  TGI: > 10 µM
U251 CNS
  TGI: > 10 µM
UACC-257 melanoma
  TGI: > 10 µM
UACC-62 melanoma
  TGI: > 10 µM
